Legend:
Format in all cases: cell-based
[1] = system: SNU-16 (FGFR2-amplification) cells; assay: cell proliferation assay (CellTiterGlo), SNU-16 cells; conditions: Homo sapiens, 72 hours
Description: (§1) In some embodiments, the biological assay assess the ability of the compounds to inhibit cell proliferation.
(§2) In some embodiments, cells (e.g., SNU-16 (FGFR2-amplification) cells) may be suspended and dispensed in plates. In some embodiments, cells (e.g., UM-UC-14 (FGFR3-S249C) cells) may be suspended and dispensed in plates. In some embodiments, cells (e.g., DMS-114 (FGFR1 overexpression) cells) may by suspended and dispensed in plates. In some embodiments, cells (e.g., RT-112 (FGFR3-Tacc3 fusion) cells) may be suspended and dispensed in plates. In some embodiments, to determine the effect of the compounds of the present disclosure on cell proliferation, cells (e.g., SNU-16, UM-UC-14, DMS-114 and […] cells) may be incubated in the presence of vehicle control (e.g., DMSO) or a compound of the present disclosure at varying concentrations and the inhibition of cell growth may be determined by luminescent quantification (e.g., of intracellular ATP content using CellTiterGlo), according to the manufacturers protocol. In some embodiments, to determine the IC50 values, the vehicle-treated cells were normalized as viable cells and the growth was analyzed using a software (e.g., the CDD Vault software (Collaborative Drug Discovery, Burlingame, CA)).

[2] = system: UM-UC-14 (FGFR3-S249C) cells; assay: cell proliferation assay (CellTiterGlo), UM-UC-14 cells; conditions: UMUC14, 72 h
Description: as §1, §2

[3] = system: DMS-114 (FGFR1 overexpression) cells; assay: cell proliferation assay (CellTiterGlo), DMS-114 cells; conditions: Homo sapiens, DMS-114, 72 h
Description: as §1, §2

[4] = system: RT-112 (FGFR3-Tacc3 fusion) cells; assay: cell proliferation assay (CellTiterGlo), RT-112 cells; conditions: Homo sapiens, RT-112, RT112 cells, 72 hours
Description: as §1, §2

| IC50 [1] | SMILES | IC50 [2] | IC50 [3] | IC50 [4] |
| --- | --- | --- | --- | --- |
| 100 to 400 nM | Cc1nc2ccc(Oc3ccc4ncc(-c5cnn(CC6CC(F)(F)C6)c5)nc4c3-n3ccnc3)cc2[nH]1 [Compound 69] | 100 to 400 nM | ≥ 400 nM | 100 to 400 nM |
| < 20 nM | Cc1nc2ccc(Oc3ccc4ncc(-c5cnn(CC6(O)CC6)c5)nc4c3C3=CC(C)(C)OC3)c(F)c2[nH]1 [Compound 73] | < 20 nM | 20 to 100 nM | < 20 nM |
| ≥ 400 nM | Cc1nc2ccc(Oc3ccc4ncc(-c5cnn(CC6(O)CC6)c5)nc4c3N3CCOC3=O)c(F)c2[nH]1 [Compound 74] | ≥ 400 nM | ≥ 400 nM | ≥ 400 nM |
| 20 to 100 nM | Cc1nc2ccc(Oc3ccc4ncc(-c5cnn(CC6(O)CC6)c5)nc4c3N3CCOCC3)cc2[nH]1 [Compound 75] | 100 to 400 nM | ≥ 400 nM | 100 to 400 nM |
| < 20 nM | Cc1nc2ccc(Oc3ccc4ncc(-c5cnn(CC6CC(F)(F)C6)c5)nc4c3C3=CC(C)(C)OC3)cc2[nH]1 [Compound 76] | < 20 nM | 100 to 400 nM | < 20 nM |
| < 20 nM | Cc1nc2ccc(Oc3ccc4ncc(-c5cnn(CC6(O)CC6)c5)nc4c3C3=CCOC3)c(F)c2[nH]1 [Compound 77] | 20 to 100 nM | 20 to 100 nM | < 20 nM |
| 100 to 400 nM | CC(=O)N1CC=C(c2c(Oc3ccc4nc(C)[nH]c4c3)ccc3ncc(-c4cnn(CC5CC(F)(F)C5)c4)nc23)C1 [Compound 78] | 100 to 400 nM | ≥ 400 nM | 100 to 400 nM |
| 20 to 100 nM | CN=S1(=O)CCC(n2cc(-c3cnc4ccc(Oc5ccc6nc(C)[nH]c6c5)c(Cl)c4n3)cn2)CC1 (stereo not shown) [Compound 80] | 20 to 100 nM | ≥ 400 nM | 20 to 100 nM |
| < 20 nM | Cc1nc2ccc(Oc3ccc4ncc(-c5cnn(CC6CC(F)(F)C6)c5)nc4c3-c3ccoc3)c(F)c2[nH]1 [Compound 81] | < 20 nM | 100 to 400 nM | < 20 nM |
| < 20 nM | Cc1nc2ccc(Oc3ccc4ncc(-c5cnn(C6CCN(S(C)(=N)=O)CC6)c5)nc4c3Cl)cc2[nH]1 (stereo not shown) [Compound 82] | 20 to 100 nM | 100 to 400 nM | 20 to 100 nM |
| 100 to 400 nM | Cc1nc2ccc(Oc3ccc4ncc(-c5cnn(CC6CC(F)(F)C6)c5)nc4c3C3=CCNC3)cc2[nH]1 [Compound 83] | 20 to 100 nM | ≥ 400 nM | 100 to 400 nM |
| 100 to 400 nM | Cc1nc2ccc(Oc3ccc4ncc(-c5cnn(CC6CC(F)(F)C6)c5)nc4c3C3=CCN(C(=O)OC(C)(C)C)C3)cc2[nH]1 [Compound 84] | ≥ 400 nM | ≥ 400 nM | 100 to 400 nM |
| 20 to 100 nM | Cc1nc2ccc(Oc3ccc4ncc(-c5cnn(C6CCS(=N)(=O)CC6)c5)nc4c3Cl)cc2[nH]1 (stereo not shown) [Compound 85] | 100 to 400 nM | ≥ 400 nM | 20 to 100 nM |
| < 20 nM | CN=S(C)(=O)N1CCC(n2cc(-c3cnc4ccc(Oc5ccc6nc(C)[nH]c6c5)c(Cl)c4n3)cn2)CC1 (stereo not shown) [Compound 86] | < 20 nM | 100 to 400 nM | < 20 nM |
| ≥ 400 nM | Cc1nc2ccc(Oc3ccc4ncc(-c5cnn(CC6CC(F)(F)C6)c5)nc4c3C3CCCOC3)cc2[nH]1 (stereo not shown) [Compound 87] | ≥ 400 nM | ≥ 400 nM | ≥ 400 nM |
| 20 to 100 nM | Cc1nc2ccc(Oc3ccc4ncc(-c5cnn(CC6CC(F)(F)C6)c5)nc4c3C3=CC(C)(C)OC3(C)C)c(F)c2[nH]1 [Compound 88] | 20 to 100 nM | 100 to 400 nM | 20 to 100 nM |
| < 20 nM | Cc1nc2ccc(Oc3ccc4ncc(-c5cnn(CC6CC(F)(F)C6)c5)nc4c3C3=CCOC3)c(F)c2[nH]1 [Compound 89] | 20 to 100 nM | 100 to 400 nM | 20 to 100 nM |
| 20 to 100 nM | Cc1nc2ccc(Oc3ccc4ncc(-c5cnn(CC6CC(F)(F)C6)c5)nc4c3C3=CC(C)(C)OC3(C)C)cc2[nH]1 [Compound 90] | 20 to 100 nM | 100 to 400 nM | 20 to 100 nM |
| 20 to 100 nM | Cc1nc2ccc(Oc3ccc4ncc(-c5cnn(CC6CC(F)(F)C6)c5)nc4c3C3=CCCOC3)cc2[nH]1 [Compound 91] | 20 to 100 nM | ≥ 400 nM | 20 to 100 nM |
| 100 to 400 nM | Cc1nc2ccc(Oc3ccc4ncc(-c5cnn(CCC(F)F)c5)nc4c3Cl)cc2[nH]1 [Compound 92] | 100 to 400 nM | ≥ 400 nM | 100 to 400 nM |
| 100 to 400 nM | Cc1nc2ccc(Oc3ccc4ncc(-c5cnn(CC6(N)CC6)c5)nc4c3Cl)cc2[nH]1 [Compound 93] | 20 to 100 nM | ≥ 400 nM | 100 to 400 nM |

| IC50 [1] | SMILES | IC50 [2] | IC50 [3] | IC50 [4] |
| --- | --- | --- | --- | --- |
| ≥ 400 nM | Cc1nc2ccc(Oc3ccc4ncc(-c5cnn(CC6CC(F)(F)C6)c5)nc4c3C3CCOCC3)cc2[nH]1 [Compound 94] | ≥ 400 nM | ≥ 400 nM | ≥ 400 nM |
| 100 to 400 nM | Cc1nc2ccc(Oc3ccc4ncc(-c5cnn(CC6CC(F)(F)C6)c5)nc4c3N3CCOC3=O)c(F)c2[nH]1 [Compound 95] | ≥ 400 nM | ≥ 400 nM | 100 to 400 nM |
| 20 to 100 nM | Cc1nc2ccc(Oc3ccc4ncc(-c5cnn(CC6CC(F)(F)C6)c5)nc4c3-n3ccnc3)c(F)c2[nH]1 [Compound 96] | – | 100 to 400 nM | 20 to 100 nM |
| 20 to 100 nM | Cc1nc2ccc(Oc3ccc4ncc(-c5cnn(CC6CC(F)(F)C6)c5)nc4c3C3COC3)cc2[nH]1 [Compound 97] | 100 to 400 nM | ≥ 400 nM | 100 to 400 nM |
| 100 to 400 nM | CC(=O)NC1(Cn2cc(-c3cnc4ccc(Oc5ccc6nc(C)[nH]c6c5)c(Cl)c4n3)cn2)CC1 [Compound 98] | ≥ 400 nM | ≥ 400 nM | 100 to 400 nM |
| 100 to 400 nM | Cc1nc2ccc(Oc3ccc4ncc(-c5cnn(CC6(NS(C)(=O)=O)CC6)c5)nc4c3Cl)cc2[nH]1 [Compound 99] | ≥ 400 nM | ≥ 400 nM | 100 to 400 nM |
| 20 to 100 nM | Cc1nc2ccc(Oc3ccc4ncc(-c5cnn(CC6CC(F)(F)C6)c5)nc4c3C3=CCOCC3)cc2[nH]1 [Compound 100] | 20 to 100 nM | 100 to 400 nM | < 20 nM |
| < 20 nM | Cc1nc2ccc(Oc3ccc4ncc(-c5cnn([C@@H](C)CO)c5)nc4c3Cl)c(F)c2[nH]1 [Compound 106] | < 20 nM | 100 to 400 nM | < 20 nM |
| < 20 nM | Cc1nc2ccc(Oc3ccc4ncc(-c5cnn([C@H](C)CO)c5)nc4c3Cl)c(F)c2[nH]1 [Compound 107] | < 20 nM | 100 to 400 nM | < 20 nM |
| < 20 nM | Cc1nc2ccc(Oc3ccc4ncc(-c5cnn([C@@H](C)C6CC(F)(F)C6)c5)nc4c3Cl)c(F)c2[nH]1 [Compound 108] | 20 to 100 nM | 100 to 400 nM | 20 to 100 nM |
| < 20 nM | Cc1nc2ccc(Oc3ccc4ncc(-c5cnn([C@H](C)C6CC(F)(F)C6)c5)nc4c3Cl)c(F)c2[nH]1 [Compound 109] | < 20 nM | 100 to 400 nM | < 20 nM |
| 20 to 100 nM | COC1(Cn2cc(-c3cnc4ccc(Oc5ccc6nc(C)[nH]c6c5)c(Cl)c4n3)cn2)CC1 [Compound 110] | 20 to 100 nM | ≥ 400 nM | 20 to 100 nM |
| 20 to 100 nM | Cc1nc2ccc(Oc3ccc4ncc(-c5cnn(Cc6nnc(C)o6)c5)nc4c3Cl)cc2[nH]1 [Compound 111] | 20 to 100 nM | ≥ 400 nM | 20 to 100 nM |
| < 20 nM | COC(=O)C(C)(C)n1cc(-c2cnc3ccc(Oc4ccc5nc(C)[nH]c5c4F)c(Cl)c3n2)cn1 [Compound 112] | < 20 nM | 100 to 400 nM | 20 to 100 nM |
| ≥ 400 nM | Cc1nc2ccc(Oc3ccc4ncc(-c5cnn(C(C)(C)C(=O)O)c5)nc4c3Cl)c(F)c2[nH]1 [Compound 115] | ≥ 400 nM | ≥ 400 nM | ≥ 400 nM |
| 20 to 100 nM | Cc1nc2ccc(Oc3ccc4ncc(-c5cnn(C[C@H](C)O)c5)nc4c3Cl)cc2[nH]1 [Compound 119] | < 20 nM | 100 to 400 nM | 20 to 100 nM |
| 20 to 100 nM | Cc1nc2ccc(Oc3ccc4ncc(-c5cnn(C6CCN(CC(F)(F)F)C7(CC7)C6)c5)nc4c3Cl)c(F)c2[nH]1 (stereo not shown) [Compound 121] | 20 to 100 nM | ≥ 400 nM | 20 to 100 nM |
| 100 to 400 nM | Cc1nc2ccc(Oc3ccc4ncc(-c5cnn(CC6CC(F)(F)C6)c5)nc4c3Cl)c(Cl)c2[nH]1 [Compound 136] | – | – | 100 to 400 nM |
| 100 to 400 nM | Cc1nc2ccc(Oc3ccc4ncc(-c5cnn(CC6(O)CC6)c5)nc4c3F)c(Cl)c2[nH]1 [Compound 137] | – | – | 100 to 400 nM |
| ≥ 400 nM | Cc1nc2ccc(Oc3ccc4ncc(-c5cnn(CC6(O)COC6)c5)nc4c3Cl)c(F)c2[nH]1 [Compound 138] | – | – | ≥ 400 nM |
